For the assay, the system named is P-Y1068-EGFR. Kind of assay: Western blot analysis of P-Y1068-EGFR in EGF-stimulated HCT15 cells treated with DGK inhibitor. Format: cell-based, human. As to conditions: versus DMSO control, pre-incubated 30 min. Here is the method: Cells were plated in 6 or 10 cm dishes and starved for 2 h at 37 C in PBS. After resting, cells were EGF-stimulated for different time 3, 10 or 30 min. Cells were lysed with ice-cold 2% NP40 supplemented with protease and phosphatase inhibitors [10 mM sodium fluoride, 2 mM sodium orthovanadate, 0.5 mM EDTA, 2 mM phenyl-methylsulfonyl fluoride, 1 mM sodium molybdate, aprotonin (10 mg/ml), leupeptin (10 mg/ml), pepstatin (1 mg/ml)]. After 30 min on ice, lysates were centrifuged and supernatant were mix with 2× sample buffer. Protein lysates were separated on acrylamide gel 10%, transferred on PVDF membrane and incubated with primary antibodies of interest. Inhibitors such as Rottlerin (20 μM) and DGK were pre-incubated for 30 min before stimulation. Western blots were visualized with enhanced chemo-luminescence and imaging on a Fuji LAS 4000 image station (GE Healthcare). The protein bands in Western blots were quantified with Multi Gauge software, and densitometry (pixel intensity) was determined within the linear range of the exposure. Amounts of the proteins of interest were typically presented as a ratio of the indicated loading control. Values were then normalized to an indicated sample and noted as a fold difference. Results represent at least three independent experiments.
For orientation: A western blot detects proteins with antibodies after separation by electrophoresis.

`O=c1c2ccccc2[nH]c(=S)n1CCN1CCC(=C(c2ccc(F)cc2)c2ccc(F)cc2)CC1` [R59949]: the P-Y1068-EGFR levels entry is “decreased levels”.

Values taken from patent US10676792B2, “Prognostic and diagnostic methods for colorectal cancer” (The Regents of the University of California, priority 2015, dated 2020).
